# In patent US12077503B2, “Substituted cyclic amides and their use as herbicides” (FMC CORPORATION, priority 2015, dated 2024):
# Key:
# Assay type in all cases: in vivo
# corn (Zea mays) = experiment: Test A postemergence; details: Zea mays, post-emergence, 240 h; for plant injury at 125 g/ha: 125 g ai/ha, postemergence, visual injury on 0 to 100 scale (0 no effect, 100 complete control), approx. 10 d, read-out: Corn plant response rating; for Corn plant response rating (crop injury, 0 = no effect, 100 = complete kill) at 31 g/ha: Postemergence, 31 g ai/ha, visual injury after approx. 10 d, 0 to 100 scale, 100 complete control
# Outline: (§1)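 Visual injury scores from 0, no effect, to 100, complete control, were assigned versus untreated controls roughly 10 d after treatment in the greenhouse. Test chemicals, formulated with surfactant in a non-phytotoxic solvent, were applied to planted seeds as a preemergence soil spray or postemergence to one- to two-leaf plants 2 to 10 cm tall, in loam–sand soil.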
# Kochia (Kochia scoparia) [1] = experiment: Test A postemergence; details: Bassia scoparia, post-emergence, 240 h; for pest or weed control at 125 g/ha: 125 g ai/ha, postemergence, visual injury on 0 to 100 scale (0 no effect, 100 complete control), approx. 10 d, read-out: Kochia plant response rating; for pest or weed control at 31 g/ha: Postemergence, 31 g ai/ha, visual injury after approx. 10 d, 0 to 100 scale, 0 no effect, 100 complete control, read-out: Plant response rating, Kochia
# Outline: as §1
# [2] = system: wheat (Triticum aestivum); experiment: Test A postemergence; details: Triticum aestivum, post-emergence, 240 h; for plant injury at 125 g/ha: 125 g ai/ha, postemergence, visual injury on 0 to 100 scale (0 no effect, 100 complete control), approx. 10 d, read-out: Wheat plant response rating; for plant injury at 31 g/ha: Postemergence, 31 g ai/ha, visual injury after approx. 10 d, 0 to 100 scale, 0 no effect, 100 complete control, read-out: Plant response rating, Wheat
# Outline: as §1
# [3] = system: barnyardgrass (Echinochloa crus-galli); experiment: Test A postemergence; details: Echinochloa crus-galli, post-emergence, 240 h; for pest or weed control at 125 g/ha: 125 g ai/ha, postemergence, visual injury on 0 to 100 scale (0 no effect, 100 complete control), approx. 10 d, read-out: Barnyardgrass plant response rating; for pest or weed control at 31 g/ha: Postemergence, 31 g ai/ha, visual injury after approx. 10 d, 0 to 100 scale, 0 no effect, 100 complete control, read-out: Plant response rating, Barnyardgrass
# Outline: as §1
# [4] = system: ragweed (common ragweed, Ambrosia elatior); experiment: Test A postemergence; details: Ambrosia artemisiifolia, post-emergence, 240 h; for pest or weed control at 125 g/ha: 125 g ai/ha, postemergence, visual injury on 0 to 100 scale (0 no effect, 100 complete control), approx. 10 d, read-out: Ragweed plant response rating; for pest or weed control at 31 g/ha: Postemergence, 31 g ai/ha, visual injury after approx. 10 d, 0 to 100 scale, 0 no effect, 100 complete control, read-out: Plant response rating, Ragweed
# Outline: as §1
# [5] = system: pigweed (Amaranthus retroflexus); experiment: Test A postemergence; details: Amaranthus retroflexus, post-emergence, 240 h; for pest or weed control at 125 g/ha: 125 g ai/ha, postemergence, visual injury on 0 to 100 scale (0 no effect, 100 complete control), approx. 10 d, read-out: Pigweed plant response rating; for pest or weed control at 31 g/ha: Postemergence, 31 g ai/ha, visual injury after approx. 10 d, 0 to 100 scale, 0 no effect, 100 complete control, read-out: Plant response rating, Pigweed
# Outline: as §1
# [6] = system: Galium (catchweed bedstraw, Galium aparine); experiment: Test A postemergence; details: Galium, post-emergence, 240 h; for pest or weed control at 125 g/ha: 125 g ai/ha, postemergence, visual injury on 0 to 100 scale (0 no effect, 100 complete control), approx. 10 d, read-out: Galium plant response rating; for pest or weed control at 31 g/ha: Postemergence, 31 g ai/ha, visual injury after approx. 10 d, 0 to 100 scale, 0 no effect, 100 complete control, read-out: Plant response rating, Galium
# Outline: as §1
# [7] = system: ryegrass, Italian (Italian ryegrass, Lolium multiflorum); experiment: Test A postemergence; details: Lolium multiflorum, post-emergence, 240 h; for pest or weed control at 125 g/ha: 125 g ai/ha, postemergence, visual injury on 0 to 100 scale (0 no effect, 100 complete control), approx. 10 d, read-out: Ryegrass, Italian plant response rating; for pest or weed control at 31 g/ha: Postemergence, 31 g ai/ha, visual injury after approx. 10 d, 0 to 100 scale, 0 no effect, 100 complete control, read-out: Plant response rating, Ryegrass, Italian
# Outline: as §1
# [8] = system: blackgrass (Alopecurus myosuroides); experiment: Test A postemergence; details: Alopecurus myosuroides, post-emergence, 240 h; for pest or weed control at 125 g/ha: 125 g ai/ha, postemergence, visual injury on 0 to 100 scale (0 no effect, 100 complete control), approx. 10 d, read-out: Blackgrass plant response rating; for pest or weed control at 31 g/ha: Postemergence, 31 g ai/ha, visual injury after approx. 10 d, 0 to 100 scale, 0 no effect, 100 complete control, read-out: Plant response rating, Blackgrass
# Outline: as §1
# [9] = system: giant foxtail (Setaria faberii); experiment: Test A postemergence; details: Setaria faberi, post-emergence, 240 h; for pest or weed control at 125 g/ha: 125 g ai/ha, postemergence, visual injury on 0 to 100 scale (0 no effect, 100 complete control), approx. 10 d, read-out: Foxtail, Giant plant response rating; for pest or weed control at 31 g/ha: Postemergence, 31 g ai/ha, visual injury after approx. 10 d, 0 to 100 scale, 0 no effect, 100 complete control, read-out: Plant response rating, Foxtail, Giant
# Outline: as §1
# rice (Oryra sativa) = experiment: Test B flooded paddy test; details: Oryza sativa, 250 g ai/ha, Flood; 0 to 100 scale where 0 is no effect and 100 is complete control; read-out: Rice plant response rating
# Outline: (§2)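 Compound goes directly into floodwater once pots are flooded 3 cm above soil, targeting plants at two leaves; the water depth is then held for the test duration. Plants sit 13–15 d in a greenhouse and are rated visually, 100 denoting complete control.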
# [10] = system: ducksalad (Heteranthera limosa); experiment: Test B flooded paddy test; details: Heteranthera limosa, 250 g ai/ha, Flood; 0 to 100 scale where 0 is no effect and 100 is complete control; read-out: Ducksalad plant response rating
# Outline: as §2
# [11] = system: barnyardgrass (Echinochloa crus-galli); experiment: Test B flooded paddy test; details: Echinochloa crus-galli, 250 g ai/ha, Flood; 0 to 100 scale where 0 is no effect and 100 is complete control; read-out: Barnyardgrass plant response rating
# Outline: as §2
# [12] = system: sedge, umbrella (small-flower umbrella sedge, Cyperus difformis); experiment: Test B flooded paddy test; details: Cyperus difformis, 250 g ai/ha, Flood; 0 to 100 scale where 0 is no effect and 100 is complete control; read-out: Sedge, Umbrella plant response rating
# Outline: as §2
# Kochia (Kochia scoparia) [13] = experiment: Test A preemergence; details: Bassia scoparia, pre-emergence, 240 h, 0 to 100 scale where 0 is no effect and 100 is complete control, read-out: Kochia plant response rating; for pest or weed control at 31 g/ha: 31 g ai/ha, Preemergence; for pest or weed control at 125 g/ha: 125 g ai/ha, preemergence, approx. 10 d
# Outline: as §1
# [14] = system: barnyardgrass (Echinochloa crus-galli); experiment: Test A preemergence; details: Echinochloa crus-galli, pre-emergence, 240 h, 0 to 100 scale where 0 is no effect and 100 is complete control, read-out: Barnyardgrass plant response rating; for pest or weed control at 31 g/ha: 31 g ai/ha, Preemergence; for pest or weed control at 125 g/ha: 125 g ai/ha, preemergence, approx. 10 d
# Outline: as §1
# [15] = system: ragweed (common ragweed, Ambrosia elatior); experiment: Test A preemergence; details: Ambrosia artemisiifolia, pre-emergence, 240 h, 0 to 100 scale where 0 is no effect and 100 is complete control, read-out: Ragweed plant response rating; for pest or weed control at 31 g/ha: 31 g ai/ha, Preemergence; for pest or weed control at 125 g/ha: 125 g ai/ha, preemergence, approx. 10 d
# Outline: as §1
# [16] = system: pigweed (Amaranthus retroflexus); experiment: Test A preemergence; details: Amaranthus retroflexus, pre-emergence, 240 h, 0 to 100 scale where 0 is no effect and 100 is complete control, read-out: Pigweed plant response rating; for pest or weed control at 31 g/ha: 31 g ai/ha, Preemergence; for pest or weed control at 125 g/ha: 125 g ai/ha, preemergence, approx. 10 d
# [17] = system: ryegrass, Italian (Italian ryegrass, Lolium multiflorum); experiment: Test A preemergence; details: Lolium multiflorum, pre-emergence, 240 h, 0 to 100 scale where 0 is no effect and 100 is complete control, read-out: Ryegrass, Italian plant response rating; for pest or weed control at 31 g/ha: 31 g ai/ha, Preemergence; for pest or weed control at 125 g/ha: 125 g ai/ha, preemergence, approx. 10 d
# Outline: as §1
# [18] = system: giant foxtail (Setaria faberii); experiment: Test A preemergence; details: Setaria faberi, pre-emergence, 240 h, 0 to 100 scale where 0 is no effect and 100 is complete control, read-out: Foxtail, Giant plant response rating; for pest or weed control at 31 g/ha: 31 g ai/ha, Preemergence; for pest or weed control at 125 g/ha: 125 g ai/ha, preemergence, approx. 10 d
# Outline: as §1
Structure (SMILES),plant injury at 125 g/ha (corn (Zea mays)) [%],"Corn plant response rating (crop injury, 0 = no effect, 100 = complete kill) at 31 g/ha (corn (Zea mays)) [%]",pest or weed control at 125 g/ha (Kochia (Kochia scoparia) [1]) [%],pest or weed control at 31 g/ha (Kochia (Kochia scoparia) [1]) [%],plant injury at 125 g/ha [2] [%],plant injury at 31 g/ha [2] [%],pest or weed control at 125 g/ha [3] [%],pest or weed control at 31 g/ha [3] [%],pest or weed control at 125 g/ha [4] [%],pest or weed control at 31 g/ha [4] [%],pest or weed control at 125 g/ha [5] [%],pest or weed control at 31 g/ha [5] [%],pest or weed control at 125 g/ha [6] [%],pest or weed control at 31 g/ha [6] [%],pest or weed control at 125 g/ha [7] [%],pest or weed control at 31 g/ha [7] [%],pest or weed control at 125 g/ha [8] [%],pest or weed control at 31 g/ha [8] [%],pest or weed control at 125 g/ha [9] [%],pest or weed control at 31 g/ha [9] [%],further results
C=C(C)c1cccc([C@H]2CN(C)C(=O)[C@@H]2C(=O)Nc2cccc(F)c2F)c1 [Compound 1085],20,20,20,0,20,0,90,40,0,0,20,0,60,40,20,0,20,0,60,0,pest or weed control at 250 g/ha (rice (Oryra sativa)): 25%; pest or weed control at 250 g/ha [10]: 30%; pest or weed control at 250 g/ha [11]: 60%; pest or weed control at 250 g/ha [12]: 0%; pest or weed control at 31 g/ha (Kochia (Kochia scoparia) [13]): 0%; pest or weed control at 125 g/ha (Kochia (Kochia scoparia) [13]): 0%; pest or weed control at 31 g/ha [14]: 0%; pest or weed control at 125 g/ha [14]: 90%; pest or weed control at 31 g/ha [15]: 0%; pest or weed control at 125 g/ha [15]: 0%; pest or weed control at 31 g/ha [16]: 0%; pest or weed control at 125 g/ha [16]: 0%; pest or weed control at 31 g/ha [17]: 0%; pest or weed control at 125 g/ha [17]: 0%; pest or weed control at 31 g/ha [18]: 90%; pest or weed control at 125 g/ha [18]: 100%
C=C(C)c1cccc([C@H]2CN(C)C(=O)[C@@H]2C(=O)Nc2cccc(F)c2C)c1 [Compound 1086],30,0,0,0,20,0,90,30,0,0,0,0,20,0,0,0,0,0,60,10,pest or weed control at 250 g/ha (rice (Oryra sativa)): 0%; pest or weed control at 250 g/ha [10]: 40%; pest or weed control at 250 g/ha [11]: 45%; pest or weed control at 250 g/ha [12]: 0%; pest or weed control at 31 g/ha (Kochia (Kochia scoparia) [13]): 0%; pest or weed control at 125 g/ha (Kochia (Kochia scoparia) [13]): 0%; pest or weed control at 31 g/ha [14]: 80%; pest or weed control at 125 g/ha [14]: 80%; pest or weed control at 31 g/ha [15]: 0%; pest or weed control at 125 g/ha [15]: 0%; pest or weed control at 31 g/ha [16]: 0%; pest or weed control at 125 g/ha [16]: 0%; pest or weed control at 31 g/ha [17]: 0%; pest or weed control at 125 g/ha [17]: 30%; pest or weed control at 31 g/ha [18]: 90%; pest or weed control at 125 g/ha [18]: 100%
